Patent US20220175777A1, “Inhibitors of Multidrug Resistance Transporter P-Glycoprotein” (Southern Methodist University, priority 2014, published 2022)

Target: P-gp (Homo sapiens, UniProt P08183)
Procedure: Stimulation of basal ATPase by 29-variants was used as an indicator that a compound may be a P-gp transport substrate. Effects on stimulated P-gp ATPase activity indicated whether a compound directly interfered with ATP usage by the protein (***, p<0.001; **, p<0.01; *, p<0.1; NS, not significant). Quantitative cellular accumulation of 29-variants was performed using LC-MS/MS and is presented as a ratio of the cellular amounts of 29-variants in the presence of P-gp inhibitor, tariquidar, divided by amounts accumulated in its absence. […] Binding of an ATP analog, SL-ATP, to P-gp was used to determine whether ATP binding to P-gp was affected by the 29-variants. Values+/−standard deviations are shown for at least three different P-gp preparations and three independent SL-ATP titration experiments. The values for SL-ATP binding in the presence of 29 were taken directly from Brewer et al. (2014).
Intracellular accumulation of compound 29 variants. Cell accumulation assays for each of the 29 variants were performed as in reference^28 to more directly assess whether the compounds were indeed transport substrates for P-gp.

Chain of P-gp (P08183 whole entry): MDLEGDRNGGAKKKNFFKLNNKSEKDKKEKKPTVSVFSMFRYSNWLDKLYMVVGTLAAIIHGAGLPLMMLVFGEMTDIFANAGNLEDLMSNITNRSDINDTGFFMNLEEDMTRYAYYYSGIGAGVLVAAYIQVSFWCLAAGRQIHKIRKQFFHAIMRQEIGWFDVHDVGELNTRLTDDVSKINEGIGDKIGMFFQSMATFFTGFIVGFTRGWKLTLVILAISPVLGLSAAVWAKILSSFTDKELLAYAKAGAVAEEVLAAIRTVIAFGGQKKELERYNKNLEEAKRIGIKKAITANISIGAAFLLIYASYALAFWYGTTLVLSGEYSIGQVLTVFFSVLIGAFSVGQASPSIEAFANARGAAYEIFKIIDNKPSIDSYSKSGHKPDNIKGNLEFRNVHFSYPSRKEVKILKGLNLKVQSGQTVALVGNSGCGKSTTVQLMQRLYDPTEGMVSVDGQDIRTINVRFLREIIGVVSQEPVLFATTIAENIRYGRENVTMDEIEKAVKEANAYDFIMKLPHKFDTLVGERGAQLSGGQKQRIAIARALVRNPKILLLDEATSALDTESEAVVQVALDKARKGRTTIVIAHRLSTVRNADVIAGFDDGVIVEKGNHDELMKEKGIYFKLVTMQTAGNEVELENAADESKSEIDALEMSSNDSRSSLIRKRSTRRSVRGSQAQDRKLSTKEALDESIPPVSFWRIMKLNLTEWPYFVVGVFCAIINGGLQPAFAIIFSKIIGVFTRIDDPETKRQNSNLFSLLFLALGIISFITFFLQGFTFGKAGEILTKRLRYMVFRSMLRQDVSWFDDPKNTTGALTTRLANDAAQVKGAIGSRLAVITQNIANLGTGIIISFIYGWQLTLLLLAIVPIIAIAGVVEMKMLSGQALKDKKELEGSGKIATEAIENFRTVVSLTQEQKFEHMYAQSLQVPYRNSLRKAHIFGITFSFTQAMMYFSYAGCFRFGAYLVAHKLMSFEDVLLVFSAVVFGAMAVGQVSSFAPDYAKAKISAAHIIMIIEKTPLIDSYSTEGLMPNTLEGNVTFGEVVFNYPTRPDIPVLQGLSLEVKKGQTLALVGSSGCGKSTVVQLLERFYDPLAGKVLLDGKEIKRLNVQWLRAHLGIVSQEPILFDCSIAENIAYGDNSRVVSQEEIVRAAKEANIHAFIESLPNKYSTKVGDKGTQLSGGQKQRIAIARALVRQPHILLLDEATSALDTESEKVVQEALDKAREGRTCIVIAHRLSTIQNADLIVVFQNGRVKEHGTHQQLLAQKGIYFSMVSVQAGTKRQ

Intracellular accumulation in the presence versus absence of TQR: no significant difference
Transport substrate for P-gp (not told): not a transport substrate
Compound: Cc1cc(C)c(-c2cc(NC(=O)CSc3n[nH]c(C4CC4)n3)n(-c3ccccc3)n2)cc1C [SMU-29, 2-[(5-cyclopropyl-1H-1,2,4-triazol-3-yl)sulfanyl]-N-[2-phenyl-5-(2,4,5-trimethylphenyl)pyrazol-3-yl]acetamide]
